Reference: ChEMBL document CHEMBL1201862, “PubChem BioAssay data set” (2004)
Active and inactive are the calls of the source.

Experiments:
Cytochrome P450 3A4 = Cytochrome P450 3A4 (Homo sapiens, UniProt P08684); conditions: Potency;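 also: confirmatory qHTS run detecting inhibitors and substrates of CYP3A4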
Beta-galactosidase = Beta-galactosidase (Escherichia coli, UniProt Q8VNN2); test: PubChem AID 485352; format: functional
[1] = target: T1, Type-1 angiotensin II receptor (Homo sapiens, UniProt P30556); test: AT1 receptor antagonists, dose response, selectivity assay for APJ receptor antagonist project, cell-based, uHTS hits (AID 463214); format: functional;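 also: antagonist potency against angiotensin II stimulated AT1 response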
T1 sequence (P30556 whole entry): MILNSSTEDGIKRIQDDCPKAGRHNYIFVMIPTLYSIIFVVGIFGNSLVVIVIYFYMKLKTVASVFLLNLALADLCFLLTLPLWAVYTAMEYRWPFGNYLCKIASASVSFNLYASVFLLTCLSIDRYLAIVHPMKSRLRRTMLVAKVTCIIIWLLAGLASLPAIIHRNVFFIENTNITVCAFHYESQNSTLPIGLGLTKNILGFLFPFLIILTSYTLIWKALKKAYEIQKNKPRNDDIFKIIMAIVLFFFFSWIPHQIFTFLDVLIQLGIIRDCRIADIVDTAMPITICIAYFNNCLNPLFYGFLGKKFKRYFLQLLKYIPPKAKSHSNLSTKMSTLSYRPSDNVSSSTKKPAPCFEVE

[2] = HEp-2 cell cytotoxicity, dose response, cytotoxicity control for RSV inhibitor project, HTS (AID 2410); format: functional; conditions: human respiratory syncytial virus
[3] = A cytotoxicity screen of small molecule inhibitors of the PhoP region in Salmonella typhi identified in the primary screen. [Related pubchem assays: 1850, 1864, 1985 ]; format: functional
[4] = target: Voltage-dependent T-type calcium channel subunit alpha-1H (Homo sapiens, UniProt O95180); format: functional;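 also: channel activity triggered by adding a high calcium stimulation buffer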
Sequence of Voltage-dependent T-type calcium channel subunit alpha-1H (O95180 whole entry): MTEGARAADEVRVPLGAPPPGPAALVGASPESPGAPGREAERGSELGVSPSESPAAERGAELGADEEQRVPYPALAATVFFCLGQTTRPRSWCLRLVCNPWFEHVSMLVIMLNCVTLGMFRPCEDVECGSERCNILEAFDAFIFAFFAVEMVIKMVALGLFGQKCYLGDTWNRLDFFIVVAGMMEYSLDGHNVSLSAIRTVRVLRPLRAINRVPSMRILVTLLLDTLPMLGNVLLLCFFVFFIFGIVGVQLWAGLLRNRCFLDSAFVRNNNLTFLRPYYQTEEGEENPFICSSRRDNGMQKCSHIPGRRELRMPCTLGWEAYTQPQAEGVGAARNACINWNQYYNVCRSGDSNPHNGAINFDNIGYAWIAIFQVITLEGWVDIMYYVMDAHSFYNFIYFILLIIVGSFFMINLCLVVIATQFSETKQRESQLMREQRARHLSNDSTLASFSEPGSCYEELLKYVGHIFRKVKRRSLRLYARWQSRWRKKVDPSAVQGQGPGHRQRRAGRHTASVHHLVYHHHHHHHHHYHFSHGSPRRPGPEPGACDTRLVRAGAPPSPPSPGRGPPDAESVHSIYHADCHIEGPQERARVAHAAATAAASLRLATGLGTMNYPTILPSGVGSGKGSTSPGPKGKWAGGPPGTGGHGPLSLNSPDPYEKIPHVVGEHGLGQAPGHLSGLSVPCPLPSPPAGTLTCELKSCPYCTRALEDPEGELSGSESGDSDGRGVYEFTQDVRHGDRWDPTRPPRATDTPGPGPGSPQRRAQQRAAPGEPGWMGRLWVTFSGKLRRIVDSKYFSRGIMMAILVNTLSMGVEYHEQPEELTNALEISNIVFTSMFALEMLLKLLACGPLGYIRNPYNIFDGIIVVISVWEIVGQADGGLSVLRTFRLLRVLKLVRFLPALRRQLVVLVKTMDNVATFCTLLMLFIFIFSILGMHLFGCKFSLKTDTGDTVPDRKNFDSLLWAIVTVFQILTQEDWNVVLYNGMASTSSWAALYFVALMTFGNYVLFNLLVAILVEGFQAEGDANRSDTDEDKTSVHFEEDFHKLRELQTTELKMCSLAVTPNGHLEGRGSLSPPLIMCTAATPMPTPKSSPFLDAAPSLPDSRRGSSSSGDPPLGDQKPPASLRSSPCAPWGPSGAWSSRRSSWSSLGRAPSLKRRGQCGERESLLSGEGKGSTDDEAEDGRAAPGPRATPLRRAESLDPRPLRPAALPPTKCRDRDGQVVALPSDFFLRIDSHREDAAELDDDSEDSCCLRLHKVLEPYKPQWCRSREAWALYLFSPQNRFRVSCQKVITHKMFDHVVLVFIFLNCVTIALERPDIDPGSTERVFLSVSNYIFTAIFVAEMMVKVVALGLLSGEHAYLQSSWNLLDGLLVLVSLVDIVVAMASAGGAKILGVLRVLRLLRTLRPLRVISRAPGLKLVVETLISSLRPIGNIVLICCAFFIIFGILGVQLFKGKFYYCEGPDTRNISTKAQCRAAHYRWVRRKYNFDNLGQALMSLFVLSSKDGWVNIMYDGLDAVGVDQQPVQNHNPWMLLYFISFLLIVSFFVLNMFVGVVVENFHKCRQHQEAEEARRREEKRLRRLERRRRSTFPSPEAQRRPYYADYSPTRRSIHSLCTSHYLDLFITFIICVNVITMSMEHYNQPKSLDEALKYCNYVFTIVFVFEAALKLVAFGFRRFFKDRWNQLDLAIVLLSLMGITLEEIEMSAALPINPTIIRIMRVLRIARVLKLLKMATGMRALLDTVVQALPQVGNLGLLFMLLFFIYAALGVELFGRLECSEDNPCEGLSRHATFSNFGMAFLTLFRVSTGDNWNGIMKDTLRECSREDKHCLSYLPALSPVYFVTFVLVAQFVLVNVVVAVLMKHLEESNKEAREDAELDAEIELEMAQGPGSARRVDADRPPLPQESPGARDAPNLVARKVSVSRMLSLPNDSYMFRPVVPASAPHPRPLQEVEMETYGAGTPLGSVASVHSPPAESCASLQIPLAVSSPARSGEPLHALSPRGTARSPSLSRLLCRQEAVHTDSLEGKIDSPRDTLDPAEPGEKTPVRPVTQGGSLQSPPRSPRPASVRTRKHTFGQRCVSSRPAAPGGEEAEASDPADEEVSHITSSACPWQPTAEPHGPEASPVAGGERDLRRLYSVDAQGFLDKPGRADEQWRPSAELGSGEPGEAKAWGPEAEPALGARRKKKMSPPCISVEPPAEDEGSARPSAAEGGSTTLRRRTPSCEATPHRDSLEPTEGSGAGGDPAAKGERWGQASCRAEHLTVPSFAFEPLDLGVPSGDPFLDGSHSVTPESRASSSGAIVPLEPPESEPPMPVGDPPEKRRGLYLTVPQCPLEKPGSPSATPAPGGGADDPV

[5] = C. albicans growth with fluconazole, confirmation, fluorescence, retest (AID 2467); format: functional, cell-based
[6] = NIH-3T3 fibroblast cytotoxicity, dose response, cytotoxicity control, cell-based, fluorescence, Alamar Blue, secondary assay (AID 2327); format: functional;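 also: NIH-3T3 mouse fibroblasts cultured with fluconazole at 8 µg/mL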
[7] = microbe, parasite or virus in culture; format: functional; conditions: Mycobacterium tuberculosis
[8] = target: Glyceraldehyde-3-phosphate dehydrogenase (Homo sapiens, UniProt P04406)
Sequence of Glyceraldehyde-3-phosphate dehydrogenase (P04406 whole entry): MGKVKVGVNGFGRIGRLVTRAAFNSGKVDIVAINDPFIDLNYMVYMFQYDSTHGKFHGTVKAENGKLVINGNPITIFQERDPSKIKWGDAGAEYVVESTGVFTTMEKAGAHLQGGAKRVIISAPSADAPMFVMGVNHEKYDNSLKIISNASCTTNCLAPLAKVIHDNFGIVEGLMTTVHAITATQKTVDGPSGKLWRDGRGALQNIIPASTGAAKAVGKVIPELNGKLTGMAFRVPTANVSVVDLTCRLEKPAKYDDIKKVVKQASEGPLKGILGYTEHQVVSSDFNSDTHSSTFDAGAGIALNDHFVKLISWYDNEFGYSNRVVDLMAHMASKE

Vero = Vero cell cytotoxicity, cytotoxicity control for flavivirus capping enzyme inhibitors (AID 588742); format: functional; conditions: Chlorocebus sabaeus
H9c2 = test: cells; format: functional, cell-based; conditions: Rattus norvegicus, H9c2, Myocardium;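 also: confirmatory concentration-response retest of ultra-high-throughput screening hits for modulation of myocardial damage; cell death induced by hydrogen peroxide oxidative stress; compound pretreatment for 60 min then peroxide exposure for 2 h; potency is for protecting the cells against peroxide damage rather than for killing them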
P388/ADR = test: cells; format: functional; conditions: Mus musculus
P388 = test: cells; format: functional; conditions: Mus musculus
SN12K1 = test: cells; format: functional; conditions: Homo sapiens
[9] = target: T2, DNA repair protein RAD52 homolog (Homo sapiens, UniProt P43351); format: functional, biochemical
T2 sequence (P43351 whole entry): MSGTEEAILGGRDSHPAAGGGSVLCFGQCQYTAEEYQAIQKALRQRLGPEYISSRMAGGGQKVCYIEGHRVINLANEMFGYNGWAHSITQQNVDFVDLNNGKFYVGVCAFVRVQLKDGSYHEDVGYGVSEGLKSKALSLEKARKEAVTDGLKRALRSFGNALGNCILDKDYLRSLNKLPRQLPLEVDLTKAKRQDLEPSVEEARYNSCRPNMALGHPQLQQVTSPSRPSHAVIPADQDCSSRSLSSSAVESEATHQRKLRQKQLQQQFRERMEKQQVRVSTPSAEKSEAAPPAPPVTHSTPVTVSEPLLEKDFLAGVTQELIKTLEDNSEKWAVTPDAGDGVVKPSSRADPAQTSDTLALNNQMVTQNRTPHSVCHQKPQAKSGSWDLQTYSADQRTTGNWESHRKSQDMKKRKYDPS

[10] = target: FAD-linked sulfhydryl oxidase ALR (Homo sapiens, UniProt P55789); test: inhibitors of human ALR sulfhydryl oxidase, dose response, biochemical, H2O2 detection, luminescence, cherry-pick (AID 493248)
Sequence of FAD-linked sulfhydryl oxidase ALR (P55789 whole entry): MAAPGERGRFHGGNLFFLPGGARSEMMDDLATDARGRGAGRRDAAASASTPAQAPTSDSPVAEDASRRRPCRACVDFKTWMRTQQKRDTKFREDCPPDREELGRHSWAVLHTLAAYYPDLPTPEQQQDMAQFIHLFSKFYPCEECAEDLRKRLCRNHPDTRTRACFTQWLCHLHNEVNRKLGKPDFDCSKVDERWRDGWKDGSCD

[11] = target: T3, Endoribonuclease toxin MazF (Escherichia coli K-12, UniProt P0AE70); test: MazF toxin RNase activators, dose response, biochemical, fluorescence, single-stranded RNA substrate, uHTS hits (AID 588481); format: functional
T3 sequence (P0AE70 whole entry): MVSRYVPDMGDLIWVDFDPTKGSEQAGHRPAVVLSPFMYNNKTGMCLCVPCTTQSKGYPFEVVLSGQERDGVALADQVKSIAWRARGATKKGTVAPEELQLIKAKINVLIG

[12] = target: T3, Endoribonuclease toxin MazF; test: fluorescent RNA oligo signal without MazF, dose response, counter-screen for MazEF activator project, biochemical, fluorescence, single-stranded RNase substrate (AID 588502); format: functional
[13] = target: T4, Zinc finger protein mex-5 (Caenorhabditis elegans, UniProt Q9XUB2); test: MEX-5/TCR-2 RNA interaction inhibitors, dose response, biochemical, C. elegans, fluorescence polarization (AID 1960)
T4 sequence (Q9XUB2 whole entry): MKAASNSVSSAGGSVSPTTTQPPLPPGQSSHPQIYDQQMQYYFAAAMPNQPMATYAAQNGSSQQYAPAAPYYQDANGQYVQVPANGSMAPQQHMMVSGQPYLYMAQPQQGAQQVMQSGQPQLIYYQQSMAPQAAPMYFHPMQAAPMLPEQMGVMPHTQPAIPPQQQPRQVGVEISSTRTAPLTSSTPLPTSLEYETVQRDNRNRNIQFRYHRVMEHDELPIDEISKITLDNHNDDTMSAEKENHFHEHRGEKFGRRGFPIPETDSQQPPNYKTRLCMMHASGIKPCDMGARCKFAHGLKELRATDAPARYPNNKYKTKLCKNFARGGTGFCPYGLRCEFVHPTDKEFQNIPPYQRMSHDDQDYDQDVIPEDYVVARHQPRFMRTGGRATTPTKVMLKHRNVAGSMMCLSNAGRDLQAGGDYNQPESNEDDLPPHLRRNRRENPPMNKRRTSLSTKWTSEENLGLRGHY

[14] = target: T5, RNA-binding protein pos-1 (Caenorhabditis elegans, UniProt G5EF15); test: inhibitors of POS-1/mex-3 RNA binding, dose response, biochemical, fluorescence polarization (AID 1964);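 also: purified POS-1 fused to maltose binding protein made in E. coli; potency of compounds blocking POS-1 binding to fluorescent RNA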
T5 sequence (G5EF15 whole entry): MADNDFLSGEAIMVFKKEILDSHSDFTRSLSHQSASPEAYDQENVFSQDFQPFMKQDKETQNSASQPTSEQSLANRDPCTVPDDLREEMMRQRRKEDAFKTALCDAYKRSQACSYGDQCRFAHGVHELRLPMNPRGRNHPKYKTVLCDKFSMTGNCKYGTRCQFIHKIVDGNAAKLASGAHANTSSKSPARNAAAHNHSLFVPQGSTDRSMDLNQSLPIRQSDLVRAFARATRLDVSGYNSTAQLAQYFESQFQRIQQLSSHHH

[15] = system: Streptococcus sp. 'group A'; test: growth inhibition of control SK(-) GAS strain, dose response, counter-screen for streptokinase expression inhibitor project, luminescence, kanamycin, BacTiterGlo, confirmation (AID 1900); format: functional, organism-based
Streptococcus = test: Group A Streptococcus viability loss, dose response, counter-screen for streptokinase expression inhibitor project, luminescence, BacTiterGlo (AID 1915); format: functional, organism-based;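 also: potency for reduction of bacterial viability or growth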

Sequence of Cytochrome P450 3A4 (P08684 whole entry): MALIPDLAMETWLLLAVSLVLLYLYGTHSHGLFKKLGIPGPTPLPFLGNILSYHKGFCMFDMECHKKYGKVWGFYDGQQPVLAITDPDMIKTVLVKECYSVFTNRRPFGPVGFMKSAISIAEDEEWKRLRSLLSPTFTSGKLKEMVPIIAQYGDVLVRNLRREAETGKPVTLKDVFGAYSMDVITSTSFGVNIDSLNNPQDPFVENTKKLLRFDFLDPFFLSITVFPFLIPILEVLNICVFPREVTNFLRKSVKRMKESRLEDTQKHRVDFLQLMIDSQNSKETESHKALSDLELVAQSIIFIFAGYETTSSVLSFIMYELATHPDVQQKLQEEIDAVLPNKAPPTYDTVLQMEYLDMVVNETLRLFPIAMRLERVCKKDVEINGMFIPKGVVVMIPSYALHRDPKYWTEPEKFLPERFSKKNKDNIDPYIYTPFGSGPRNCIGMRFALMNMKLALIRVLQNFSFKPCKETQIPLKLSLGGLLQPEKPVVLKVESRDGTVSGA
Sequence of Beta-galactosidase (Q8VNN2 whole entry): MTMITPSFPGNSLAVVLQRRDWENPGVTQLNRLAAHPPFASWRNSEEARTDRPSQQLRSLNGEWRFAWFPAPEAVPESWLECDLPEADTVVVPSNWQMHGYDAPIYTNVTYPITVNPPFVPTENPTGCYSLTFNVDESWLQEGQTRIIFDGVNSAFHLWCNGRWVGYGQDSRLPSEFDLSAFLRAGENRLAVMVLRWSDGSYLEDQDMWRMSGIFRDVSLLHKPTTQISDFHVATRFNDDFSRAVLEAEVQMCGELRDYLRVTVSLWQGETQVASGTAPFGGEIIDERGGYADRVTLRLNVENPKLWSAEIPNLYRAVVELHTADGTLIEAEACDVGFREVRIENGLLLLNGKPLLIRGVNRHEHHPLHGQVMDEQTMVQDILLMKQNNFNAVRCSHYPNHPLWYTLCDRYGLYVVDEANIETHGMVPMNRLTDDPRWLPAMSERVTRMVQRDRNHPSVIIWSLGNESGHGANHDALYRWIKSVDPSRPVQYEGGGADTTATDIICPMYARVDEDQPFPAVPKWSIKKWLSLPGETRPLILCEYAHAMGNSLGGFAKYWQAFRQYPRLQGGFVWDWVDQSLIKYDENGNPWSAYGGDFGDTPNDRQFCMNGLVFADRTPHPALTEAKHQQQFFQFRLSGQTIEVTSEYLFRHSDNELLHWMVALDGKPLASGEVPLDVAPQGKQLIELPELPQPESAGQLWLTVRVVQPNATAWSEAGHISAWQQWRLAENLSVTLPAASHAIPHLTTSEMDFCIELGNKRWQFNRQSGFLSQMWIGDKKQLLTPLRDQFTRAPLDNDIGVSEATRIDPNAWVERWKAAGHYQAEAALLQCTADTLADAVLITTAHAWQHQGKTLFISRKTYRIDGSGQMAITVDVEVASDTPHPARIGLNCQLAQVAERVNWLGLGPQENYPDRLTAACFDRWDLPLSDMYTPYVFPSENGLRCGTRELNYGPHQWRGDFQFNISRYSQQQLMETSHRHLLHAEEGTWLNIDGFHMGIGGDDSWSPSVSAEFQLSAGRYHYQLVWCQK

O=C(/C=C/c1ccc(Cl)cc1)c1cccs1
AC50 (Cytochrome P450 3A4): 25.1 µM (inconclusive)

Cc1cccc2c1N(CCCOc1ccccc1)C(=O)C2=O
EC50 (Beta-galactosidase): > 40 µM (inactive) | IC50 [1]: > 40 µM (not active)

CC(Nc1cccc2ccccc12)C(=O)N/N=C/c1ccc([N+](=O)[O-])cc1 (configuration not stated)
CC50 [2]: 21.8 µM (active) | IC50 (cells): 22.1 µM (active)

CC(=O)c1ccc(N2CCN(Cc3nc4ccccc4[nH]3)CC2)cc1
CC50 [2]: > 50 µM (active) | IC50 (cells): 10.8 µM (active)

CC1=NN(c2ccc(C)cc2)C(=O)/C1=C/c1ccc(-c2cc([N+](=O)[O-])ccc2O)o1
EC50 (Beta-galactosidase): > 40 µM (inactive) | IC50 [1]: > 40 µM (not active)

Clc1ccc2c(NCc3ccccn3)ccnc2c1
EC50 [3]: > 50 µM (active)

CC(Oc1ccccc1)c1ccnn1S(=O)(=O)c1ccccc1 (configuration not stated)
EC50 [4]: 50.8 µM (active)

COc1ccc(C)cc1NC(=O)C1CCN(S(=O)(=O)c2c(C)noc2C)CC1
EC50 [3]: > 50 µM (active)

Cc1ccc(C(=O)N/C(=C/c2ccc(-c3cc(C(F)(F)F)ccc3Cl)o2)C(=O)NCc2cccnc2)cc1
EC50 [5]: > 38 µM (not active) | EC50 [6]: 21.4 µM (active) | CC50 [7]: > 40 µM (active)

O=C1C(Cl)=C(N2CCN(c3ncccn3)CC2)C(=O)N1c1ccc(C(F)(F)F)cc1
IC50 [8]: > 50 µM (inconclusive)

COc1cccc(/N=C2\NC(=O)/C(=C/c3cc([N+](=O)[O-])ccc3O)S2)c1
EC50 (Beta-galactosidase): > 40 µM (inactive) | IC50 [1]: > 40 µM (not active)

CNC(=O)/C(C#N)=C/c1c(N(Cc2ccccc2)Cc2ccccc2)nc2ccccn2c1=O
CC50 (Vero): > 40 µM (active) | IC50 (H9c2): > 79 µM (inactive)

CCC1(c2ccc(N)cc2)CCC(=O)NC1=O (configuration not stated) [AMINOGLUTETHIMIDE]
GI50 (P388/ADR): 1610 µM (inactive) | AC50 (Cytochrome P450 3A4): 31.6 µM (inconclusive) | GI50 (P388): 2390 µM (inactive) | GI50 (SN12K1): 1690 µM (inactive)

Cc1ccc(C(=O)N/C(=C\c2ccc(C(C)C)cc2)C(=O)NCCCN2CCOCC2)cc1
IC50 (cells): 14.6 µM (active)

Cc1cc(C)c2nc3nc(C)c(C)cc3c(N)c2c1
AC50 [9]: 1.56 µM (active)

CCc1ccccc1Nc1nc(N)nc(COC(=O)c2cccn2C)n1
CC50 [2]: 17.3 µM (active) | IC50 (cells): 13 µM (active)

Cc1cc(NC(=O)c2cccc(Oc3ccccc3)c2)[nH]n1
EC50 [5]: 1.87 µM (active) | EC50 [6]: > 150 µM (inactive)

Clc1ccc(C2[C@H]3CN(Cc4ccc(-c5ccccc5)cc4)[C@H](c4ccccc4)C34CC2(c2ccccc2)C4)cn1 (some centres not stated)
AC50 (Cytochrome P450 3A4): 15.8 µM (inconclusive)

O=C(NCCO)c1cc(-c2cc(F)c(F)cc2F)n[nH]1
IC50 [8]: > 10 µM (inconclusive)

CCn1c(CNc2ccccc2Cl)nnc1SCC(=O)OC1CCCCC1
EC50 [4]: 3.84 µM (active)

Cc1cc(NS(=O)(=O)c2ccc(NC(=O)Nc3cccc(Cl)c3)cc2)no1
AC50 [10]: 0.098 µM (active) | EC50 [3]: > 50 µM (active)

C#CCN1C(=O)S/C(=C\c2ccc(N3CCOCC3)cc2C)C1=O
EC50 [11]: > 99 µM (inactive) | EC50 [12]: > 99 µM (inactive)

Cc1ccc(S(=O)(=O)NC2CCCCC2)cc1
AC50 (Cytochrome P450 3A4): 20 µM (inconclusive)

COc1ccc(OC)c(NC(=O)c2c3c(nc4ccccc24)CCC3)c1
EC50 [5]: 2.17 µM (active) | EC50 [6]: > 150 µM (inactive)

Cc1cc(NC(=O)/C(C#N)=C/c2ccc(-c3ccc(SC(F)F)cc3)o2)n(-c2ccccc2)n1
EC50 [13]: 25.8 µM (active) | EC50 [11]: > 99 µM (inactive) | EC50 [14]: 22.9 µM (active) | EC50 [12]: 48.9 µM (inactive)

O=c1oc2ccccc2cc1-c1nc(-c2cccs2)cs1
EC50 [13]: 5.43 µM (active) | EC50 [11]: > 99 µM (inactive) | EC50 [14]: 15.6 µM (inconclusive) | EC50 [12]: > 99 µM (inactive)

N#CC1CC(c2ccccc2)=NN1c1ccccc1[N+](=O)[O-] (configuration not stated)
EC50 [5]: > 38 µM (not active) | EC50 [6]: > 160 µM (inactive)

O=C(COC(=O)c1ccco1)c1ccc(S(=O)(=O)N2CCCCC2)cc1
EC50 (Beta-galactosidase): > 40 µM (inactive) | IC50 [1]: 16.5 µM (active)

COc1ccccc1C(=O)Nc1ccc(NC(=O)c2ccco2)c(C)c1
EC50 [4]: 6.29 µM (active)

O=C(CSc1nnc(-c2ccccc2)n1Cc1ccco1)NCc1ccc2c(c1)OCO2
EC50 [4]: 12.1 µM (active)

CC(=O)OCC1OC(C#CCC2CCCCC2)C=CC1OC(C)=O (configuration not stated)
AC50 (Cytochrome P450 3A4): 3.16 µM (inconclusive)

Cc1ccc2oc(C(=O)Nc3ccc(S(=O)(=O)Nc4onc(C)c4C)cc3)c(C)c2c1
CC50 [2]: 25.9 µM (active) | IC50 (cells): 23.7 µM (active)

CC(C)=CCc1c2c(c3occ(-c4ccc(O)cc4)c(=O)c3c1O)C=CC(C)(C)O2 [OSAJIN]
EC50 [15]: 1.11 µM (active) | AC50 (Cytochrome P450 3A4): 25.1 µM (inconclusive) | EC50 (Streptococcus): 1.47 µM (active)

NS(=O)(=O)c1ccc(CNC(=O)COc2ccc3c4c(c(=O)oc3c2)CCCC4)cc1
EC50 [11]: > 99 µM (inactive) | EC50 [12]: > 99 µM (inactive)

O=C(O)c1cc(O)c2c(c1)C(=O)c1cc(O)cc(O)c1C2=O [EMODIC ACID]
AC50 (Cytochrome P450 3A4): 15.8 µM (inconclusive)

CSc1ncc(Cl)c(C(=O)C(C#N)c2nc(O)c3cc(C)cc(C)c3n2)n1 (configuration not stated)
EC50 [5]: 2.48 µM (active) | EC50 [6]: 18.3 µM (active)

COc1ccc(N(C(=O)c2cccnc2)S(=O)(=O)c2ccc(F)cc2)cc1
EC50 [3]: > 50 µM (active)

Cc1cccc(N2C(=O)C(Cl)=C(N3CCN(c4ccccc4)CC3)C2=O)c1
IC50 [8]: > 50 µM (inconclusive)

COc1ccc(N(C(=O)Cn2cnc3ccccc32)C(C(=O)NC2CCCCC2)c2ccccc2)cc1 (configuration not stated)
EC50 [4]: 4.82 µM (active)

Cc1nn(CCC(=O)NN=C(S)Nc2ccc(F)cc2)c(C)c1Br
EC50 (Beta-galactosidase): > 40 µM (inactive) | IC50 [1]: > 40 µM (not active)

O=[N+]([O-])c1cc(C(F)(F)F)ccc1NCC1CCCO1 (configuration not stated)
EC50 [11]: > 99 µM (inactive) | EC50 [12]: > 99 µM (inactive)
